From ChEMBL document CHEMBL1799924, “Synthesis and activities of naphthalimide azoles as a new type of antibacterial and antifungal agents” (2011)
≈ marks a conversion by molar mass, not a printed value.

Assays:
[1] = test system: Staphylococcus aureus; assay: Antibacterial activity against methicillin-resistant Staphylococcus aureus N 315 by microbroth dilution method; format: functional
[2] = test system: Candida albicans; assay: Antifungal activity against Candida albicans ATCC 76615 by microbroth dilution method; format: functional
[3] = test system: Micrococcus luteus; assay: Antibacterial activity against Micrococcus luteus by microbroth dilution method; format: functional
[4] = test system: Pseudomonas aeruginosa; assay: Antibacterial activity against Pseudomonas aeruginosa by microbroth dilution method; format: functional
[5] = test system: Staphylococcus aureus; assay: Antibacterial activity against Staphylococcus aureus ATCC 25923 by microbroth dilution method; format: functional
[6] = test system: Salmonella typhi; assay: Antibacterial activity against Bacillus typhi by microbroth dilution method; format: functional, Salmonella enterica subsp. enterica serovar Typhi; details: Salmonella enterica
[7] = test system: Candida; assay: Antifungal activity against Candida mycoderma by microbroth dilution method; format: functional
[8] = test system: Bacillus subtilis; assay: Antibacterial activity against Bacillus subtilis ATCC 6633 by microbroth dilution method; format: functional
[9] = test system: Bacillus; assay: Antibacterial activity against Bacillus proteus by microbroth dilution method; format: functional
[10] = test system: Escherichia coli; assay: Antibacterial activity against Escherichia coli JM 109 by microbroth dilution method; format: functional

SMILES	MIC [1] [µg/mL]	MIC [2] [µg/mL]	MIC [3] [µg/mL]	MIC [4] [µg/mL]	MIC [5] [µg/mL]	MIC [6] [µg/mL]	MIC [7] [µg/mL]	MIC [8] [µg/mL]	MIC [9] [µg/mL]	MIC [10] [µg/mL]
O=C1c2cccc3c(Br)ccc(c23)C(=O)N1CCCn1cncn1	> 512	256 (≈ 665 µM)	> 512	256 (≈ 665 µM)	> 512	> 512	256 (≈ 665 µM)	256 (≈ 665 µM)	256 (≈ 665 µM)	> 512
O=C1c2cccc3c(Br)ccc(c23)C(=O)N1CCCCn1cncn1	> 512	> 512	> 512	256 (≈ 641 µM)	> 512	> 512	> 512	> 512	256 (≈ 641 µM)	> 512
O=C1c2cccc3c(Br)ccc(c23)C(=O)N1CCCCCn1cncn1	> 512	> 512	> 512	256 (≈ 619 µM)	> 512	> 512	> 512	> 512	> 512	> 512
O=C1c2cccc3c(Br)ccc(c23)C(=O)N1CCCn1c[n+](Cc2ccc(F)cc2F)cn1.[Br-]	4	8	8	1	16	4	4	4	8	4
O=C1c2cccc3c(Br)ccc(c23)C(=O)N1CCCn1c[n+](Cc2ccc(Cl)cc2Cl)cn1.[Br-]	16	8	8	4	16	16	8	8	4	4
O=C1c2cccc3c(Br)ccc(c23)C(=O)N1CCCn1c[n+](Cc2ccc(Cl)c(Cl)c2)cn1.[Br-]	16	16	16	16	16	16	16	32	32	16
O=C1c2cccc3c(Br)ccc(c23)C(=O)N1CCCn1c[n+](Cc2ccccc2Cl)cn1.[Br-]	16	8	16	16	16	32	32	32	32	16
O=C1c2cccc3c(Br)ccc(c23)C(=O)N1CCCn1c[n+](Cc2ccc(Cl)cc2)cn1.[Br-]	8	16	8	8	32	16	16	16	16	8
O=C1c2cccc3c(Br)ccc(c23)C(=O)N1CCCn1c[n+](Cc2ccc([N+](=O)[O-])cc2)cn1.[Br-]	16	32	32	32	32	32	16	32	16	16
O=C1c2cccc3c(Br)ccc(c23)C(=O)N1CCCCn1c[n+](Cc2ccc(F)cc2F)cn1.[Br-]	16	16	16	2	16	8	32	16	16	8
O=C1c2cccc3c(Br)ccc(c23)C(=O)N1CCCCCn1c[n+](Cc2ccc(F)cc2F)cn1.[Br-]	16	16	16	2	32	16	16	32	32	8
O=C1c2cccc3c(Br)ccc(c23)C(=O)N1CCCn1ccnc1	16 (≈ 41.6 µM)	64 (≈ 167 µM)	16 (≈ 41.6 µM)	32 (≈ 83.3 µM)	16 (≈ 41.6 µM)	16 (≈ 41.6 µM)	64 (≈ 167 µM)	16 (≈ 41.6 µM)	16 (≈ 41.6 µM)	16 (≈ 41.6 µM)
O=C1c2cccc3c(Br)ccc(c23)C(=O)N1CCCCn1ccnc1	16 (≈ 40.2 µM)	64 (≈ 161 µM)	16 (≈ 40.2 µM)	16 (≈ 40.2 µM)	16 (≈ 40.2 µM)	16 (≈ 40.2 µM)	32 (≈ 80.3 µM)	32 (≈ 80.3 µM)	16 (≈ 40.2 µM)	8 (≈ 20.1 µM)
O=C1c2cccc3c(Br)ccc(c23)C(=O)N1CCCCCn1ccnc1	128 (≈ 310 µM)	128 (≈ 310 µM)	64 (≈ 155 µM)	64 (≈ 155 µM)	64 (≈ 155 µM)	128 (≈ 310 µM)	64 (≈ 155 µM)	64 (≈ 155 µM)	32 (≈ 77.6 µM)	32 (≈ 77.6 µM)
O=C1c2cccc3c(Br)ccc(c23)C(=O)N1CCCCCCn1ccnc1	64 (≈ 150 µM)	32 (≈ 75.1 µM)	128 (≈ 300 µM)	128 (≈ 300 µM)	64 (≈ 150 µM)	32 (≈ 75.1 µM)	32 (≈ 75.1 µM)	16 (≈ 37.5 µM)	16 (≈ 37.5 µM)	64 (≈ 150 µM)
O=C1c2cccc3c(Br)ccc(c23)C(=O)N1CCCn1cc[n+](Cc2ccc(F)cc2F)c1.[Br-]	4	32	8	8	4	8	32	8	8	8
O=C1c2cccc3c(Br)ccc(c23)C(=O)N1CCCCn1cc[n+](Cc2ccc(F)cc2F)c1.[Br-]	2	32	8	16	8	8	16	8	16	8
O=C1c2cccc3c(Br)ccc(c23)C(=O)N1CCCCCn1cc[n+](Cc2ccc(F)cc2F)c1.[Br-]	8	16	4	16	16	16	16	16	4	16
O=C1c2cccc3c(Br)ccc(c23)C(=O)N1CCCCCCn1cc[n+](Cc2ccc(F)cc2F)c1.[Br-]	16	32	32	64	16	32	32	16	32	32
O=C1c2cccc3c(Br)ccc(c23)C(=O)N1CCCCCCn1cncn1	> 512	> 512	> 512	> 512	> 512	> 512	> 512	> 512	> 512	> 512
O=C1c2cccc3c(Br)ccc(c23)C(=O)N1CCCCCCn1c[n+](Cc2ccc(F)cc2F)cn1.[Br-]	32	32	32	8	16	16	64	16	32	32
O=C(N[C@H](CO)[C@H](O)c1ccc([N+](=O)[O-])cc1)C(Cl)Cl [CHLORAMPHENICOL]	4 (≈ 12.4 µM)		8 (≈ 24.8 µM)	16 (≈ 49.5 µM)	2 (≈ 6.19 µM)	8 (≈ 24.8 µM)		4 (≈ 12.4 µM)	2 (≈ 6.19 µM)	8 (≈ 24.8 µM)
OC(Cn1cncn1)(Cn1cncn1)c1ccc(F)cc1F [FLUCONAZOLE]		1 (≈ 3.27 µM)					4 (≈ 13.1 µM)			
C[C@@H]1CN(c2c(F)c(F)c3c(=O)c(C(=O)O)cn(C4CC4)c3c2F)C[C@H](C)N1 [ORBIFLOXACIN]	1 (≈ 2.53 µM)		1 (≈ 2.53 µM)	1 (≈ 2.53 µM)	2 (≈ 5.06 µM)	1 (≈ 2.53 µM)		2 (≈ 5.06 µM)	4 (≈ 10.1 µM)	1 (≈ 2.53 µM)
